Eleven compounds from publication PMC6958422 (Pharmaceuticals, 2019) can be followed below.

Each structure is given as a SMILES string.

The target of one data set is T1, hA2A AR (Homo sapiens, UniProt P29274).
T1 construct: expressed in transfected cells; host or cells: CHO cells
As to the kind of experiment: [3H]ZM241385 competition binding to hA2A CHO cell membranes. To be noted: for I% hA2A: percentage of inhibition at 1µM, [3H]ZM241385; for Ki: [3H]ZM241385, hA2A CHO cells, means ± SEM. The protocol:
(§1) CHO cells transfected with hA1, hA2A, hA2B, and hA3 ARs were grown adherently and maintained in Dulbecco’s modified Eagle’s medium (Sigma-Aldrich, Milan, Italy) with nutrient mixture F12, containing 10% fetal calf serum, penicillin (100 U/mL), streptomycin (100 μg/mL), l-glutamine (2 mM) and geneticin (G418; 0.2 mg/mL) at 37°C in 5% CO2/95% air until the use in cAMP assays. For membrane preparation, the culture medium was removed, and the cells were washed with phosphate-buffered saline and scraped off T75 flasks in ice-cold hypotonic buffer (5 mM Tris HCl, 1 mM EDTA, pH 7.4). The cell suspension was homogenized with a Polytron, centrifuged for 30 min at 40000 g at 4°C, and the resulting membrane pellet was used for competition binding experiments.
(§2) All synthesized compounds have been tested for their affinity to hA1, hA2A, and hA3 ARs. Competition experiments to hA1 ARs were carried out incubating 1 nM [^3H]-8-cyclopentyl-1,3-dipropylxanthine ([^3H]-DPCPX) with membrane suspension (50 μg of protein/100 μL) and different concentrations of the examined compounds at 25°C for 90 min in 50 mM Tris HCl, pH 7.4. […] Inhibition experiments to hA2A ARs were performed incubating the radioligand [^3H]-ZM241385 (4-(2-[7-Amino-2-(2-furyl)[1,2,4]triazolo[2,3-a][1,3,5]triazin-5-ylamino]ethyl)phenol) (1 nM) with the membrane suspension (50 μg of protein/100 μL) and different concentrations of the examined compounds for 60 min at 4°C in 50 mM Tris HCl (pH 7.4), 10 mM MgCl2. Non-specific binding was determined in the presence of ZM241385 (1 μM) and was about 20% of the total binding. Competition binding experiments to A3 ARs were carried out incubating the membrane suspension (50 μg of protein/100 μL) with 0.5 nM [^125I]-N^6-(4-aminobenzyl)-N-methylcarboxamidoadenosine ([^125I]-ABMECA) in the presence of different concentration of the examined compounds for an incubation time of 120 min at 4°C in 50 mM Tris HCl (pH 7.4), 10 mM MgCl2, and 1 mM EDTA. Non-specific binding was defined as binding in the presence of 1μM ABMECA and was always < 10% of the total binding. Bound and free radioactivity were separated by filtering the assay mixture through Whatman GF/B glass fiber filters using a Brandel cell harvester (Brandel Instruments, Unterföhring, Germany). The filter bound radioactivity was counted by Packard Tri Carb 2810 TR scintillation counter (Perkin Elmer, Boston, MA, USA).
(§3) The protein concentration was determined according to a Bio-Rad method with bovine albumin as a standard reference. Inhibitory binding constant (Ki) values were calculated from those of IC50 according to Cheng & Prusoff equation Ki = IC50/(1+[C*]/KD*), where [C*] is the concentration of the radioligand and KD* its dissociation constant. Ki and IC50 values were calculated by non-linear regression analysis using the equation for a sigmoid concentration-response curve (Graph-PAD Prism, San Diego, CA, USA).

Another data set concerns the target T2, hA1 AR (Homo sapiens, UniProt P30542).
T2 construct: expressed in transfected cells; host or cells: CHO cells
T2 sequence (P30542 1-326): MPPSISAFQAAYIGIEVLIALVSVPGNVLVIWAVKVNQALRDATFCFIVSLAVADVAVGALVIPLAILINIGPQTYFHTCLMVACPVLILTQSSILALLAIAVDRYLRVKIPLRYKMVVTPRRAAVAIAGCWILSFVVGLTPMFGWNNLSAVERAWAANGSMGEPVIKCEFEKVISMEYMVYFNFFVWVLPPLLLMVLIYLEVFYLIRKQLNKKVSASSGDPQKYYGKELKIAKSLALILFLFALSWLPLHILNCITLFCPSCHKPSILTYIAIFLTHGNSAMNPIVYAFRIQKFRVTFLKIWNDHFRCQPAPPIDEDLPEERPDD
Kind of data set: [3H]DPCPX competition binding to hA1 CHO cell membranes. Particulars: for I% hA1: percentage of inhibition at 1µM, [3H]DPCPX. The protocol: as §1, §2, §3

For another data set, the target named is T3, hA2B AR (Homo sapiens, UniProt P29275).
T3 construct: expressed in transfected cells; host or cells: CHO cells
T3 sequence (P29275 1-332): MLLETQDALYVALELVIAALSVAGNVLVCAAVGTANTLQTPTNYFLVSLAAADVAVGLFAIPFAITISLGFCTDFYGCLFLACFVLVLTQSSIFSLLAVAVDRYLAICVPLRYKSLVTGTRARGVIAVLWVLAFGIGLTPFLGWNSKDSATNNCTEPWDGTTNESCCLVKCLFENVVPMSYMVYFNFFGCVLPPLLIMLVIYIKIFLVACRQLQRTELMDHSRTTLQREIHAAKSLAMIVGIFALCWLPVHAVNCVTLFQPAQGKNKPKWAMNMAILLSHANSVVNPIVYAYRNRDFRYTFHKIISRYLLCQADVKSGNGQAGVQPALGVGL
As to the kind of experiment: cAMP assay, stimulation of cAMP production in hA2B CHO cells (agonism). The data set is classed as cell-based. Particulars: for Emax at 1 µM: CHO, compound at 1µM, in comparison with NECA (1µM = 100%), read-out: Efficacy hA2B (cAMP assays) (converted); for EC50: hA2B CHO cells, means ± SEM of four assays. The protocol: The amino-3,5-dicyanopyridines 1–20 were tested for their affinity at hA1, hA2A, and hA3 ARs, stably transfected in Chinese Hamster Ovary (CHO) cells, and were also studied as hA2B agonists by evaluating their stimulatory effect on cAMP production in CHO cells, stably expressing the hA2B AR.
as §1
CHO cells transfected with hAR subtypes were washed with phosphate-buffered saline, detached with trypsin and centrifuged for 10 min at 200 g. Cells were seeded in 96-well white half-area microplate (Perkin Elmer, Boston, USA) in a stimulation buffer composed of Hank Balanced Salt Solution (Sigma-Aldrich, Milan, Italy), 5 mM HEPES, 0.5 mM Ro 20-1724, and 0.1% BSA. cAMP levels were then quantified by using the AlphaScreen cAMP Detection Kit (Perkin Elmer) following the manufacturer’s instructions. At the end of the experiments, plates were read with the Perkin Elmer EnSight Multimode Plate Reader.
(In general: Changes in cAMP serve as a functional read-out for many G protein-coupled receptors.)

In the next data set the target is T4, hA3 AR (Homo sapiens, UniProt P0DMS8).
T4 construct: expressed in transfected cells; host or cells: CHO cells
T4 sequence (P0DMS8 1-318): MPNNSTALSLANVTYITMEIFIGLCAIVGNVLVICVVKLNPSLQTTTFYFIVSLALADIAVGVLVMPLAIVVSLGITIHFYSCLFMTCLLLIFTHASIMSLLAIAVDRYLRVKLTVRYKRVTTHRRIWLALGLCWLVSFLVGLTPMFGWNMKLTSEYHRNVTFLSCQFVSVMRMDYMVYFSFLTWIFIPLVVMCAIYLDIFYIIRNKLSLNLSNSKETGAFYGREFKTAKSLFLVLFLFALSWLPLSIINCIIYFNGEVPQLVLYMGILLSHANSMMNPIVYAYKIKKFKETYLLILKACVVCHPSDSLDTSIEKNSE
Kind of data set: [125I]AB-MECA competition binding to hA3 CHO cell membranes. To be noted: for Ki: hA3 CHO cells, means ± SEM; for inhibition at 1 µM: percentage of inhibition at 1µM. The protocol: as §1, §2, §3

T1 sequence (P29274 whole entry): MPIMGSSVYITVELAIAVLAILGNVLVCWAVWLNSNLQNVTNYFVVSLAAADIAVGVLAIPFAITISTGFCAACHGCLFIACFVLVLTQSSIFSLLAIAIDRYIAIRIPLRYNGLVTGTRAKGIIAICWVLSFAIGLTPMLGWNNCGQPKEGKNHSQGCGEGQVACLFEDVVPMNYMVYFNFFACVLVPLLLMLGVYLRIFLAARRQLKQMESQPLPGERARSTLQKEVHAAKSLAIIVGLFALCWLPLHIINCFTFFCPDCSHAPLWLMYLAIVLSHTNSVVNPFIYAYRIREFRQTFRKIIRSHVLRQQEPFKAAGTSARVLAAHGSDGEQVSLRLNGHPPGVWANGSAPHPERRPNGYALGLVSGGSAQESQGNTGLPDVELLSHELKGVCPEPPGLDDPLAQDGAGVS

In general, melting point refers to the temperature, or range, at which the solid turns liquid. Usually EC50 stands for the midpoint of the concentration-response curve. A low value points to a more potent agent. As a reminder, the Ki is the equilibrium dissociation constant of an inhibitor or competing ligand from its target. A lower Ki goes with tighter binding. Compound `N#Cc1c(N)nc(SCc2ncc[nH]2)c(C#N)c1-c1ccc(OCC2CCC2)cc1` [Compound 1, 2-Amino-4-[4-(cyclobutylmethoxy)phenyl]-6-[(1H-imidazol-2-ylmethyl)sulfanyl]pyridine-3,5-dicarbonitrile] had a melting point of 214 to 216 °C. Besides, the “I% hA2A” value on hA2A AR is on record as 4%. Besides, on hA1 AR, the “I% hA1” value is recorded as 25%. At hA2B AR, the Emax at 1 µM was 12% and the EC50 is > 1000 nM. Further, affinity on hA3 AR was put at a Ki of 574 ± 46 nM.
Usually inhibition stands for the relative decrease from the control value, in per cent. A higher inhibition goes with strong suppression. `CC(C)COc1ccc(-c2c(C#N)c(N)nc(SCc3ncc[nH]3)c2C#N)cc1` [Compound 2, 2-Amino-6-[(1H-imidazol-2-ylmethyl)sulfanyl]-4-[4-(2-methylpropoxy)phenyl]pyridine-3,5-dicarbonitrile]: the melting point is 230 to 232 °C. Further, the “I% hA2A” value at hA2A AR is reported as 1%. For the same compound, the “I% hA1” value at hA1 AR was 26%. On hA2B AR, the Emax at 1 µM is 36% and the midpoint of the response, the EC50, lay at 227 ± 21 nM. Besides, the inhibition at 1 µM on hA3 AR worked out at 1%.
`C=C(C)COc1ccc(-c2c(C#N)c(N)nc(SCc3ncc[nH]3)c2C#N)cc1` [Compound 4, 2-Amino-6-[(1H-imidazol-2-ylmethyl)sulfanyl]-4-{4-[(2-methylprop-2-en-1-yl)oxy]phenyl} pyridine-3,5-dicarbonitrile] registered a melting point of 224 to 226 °C. The “I% hA2A” value at hA2A AR came to 1%. Besides, at hA1 AR, the Ki amounted to 77 ± 6 nM. For the same compound, at hA2B AR, the Emax at 1 µM is 14% and the EC50 is > 1000 nM. The compound further yielded an inhibition at 1 µM at hA3 AR of 8%.
`CC(=O)Nc1ccc(-c2c(C#N)c(N)nc(SCc3ncc[nH]3)c2C#N)cc1` [Compound 6, N-(4-{2-Amino-3,5-dicyano-6-[(1H-imidazol-2-ylmethyl)sulfanyl]pyridin-4-yl}phenyl) acetamide] showed a melting point of 275 to 278 °C. This compound showed a Ki at hA2A AR of 38 ± 3 nM. On hA1 AR, this compound gave a Ki of 83 ± 7 nM. In addition, at hA2B AR, the Emax at 1 µM is 100% and a half-maximal response (EC50) required 12 ± 1 nM. Moreover, the “Pharmacological profile at hA2BAR” value on hA2B AR (cAMP assay) is recorded as “full agonist profile”. On hA3 AR, this compound showed a Ki of 48 ± 4 nM.
Consider `N#Cc1c(N)nc(SCc2ncc[nH]2)c(C#N)c1-c1ccc(Cl)cc1` [Compound 7, 2-Amino-4-(4-chlorophenyl)-6-[(1H-imidazol-2-ylmethyl)sulfanyl]pyridine-3,5-dicarbonitrile], for which the melting point is 229 to 231 °C (dec.). On hA2A AR, this compound registered a Ki of 865 ± 68 nM. Besides, the affinity at hA1 AR, expressed as Ki, was 30 ± 4 nM. Moreover, at hA2B AR, the Emax at 1 µM was 32% and a half-maximal response (EC50) required 109 ± 12 nM. In addition, at hA3 AR, the Ki was 850 ± 62 nM.
As to `N#Cc1c(N)nc(SCc2ncc[nH]2)c(C#N)c1-c1ccc(C(F)(F)F)cc1` [Compound 9, 2-Amino-6-[(1H-imidazol-2-ylmethyl)sulfanyl]-4-[4-(trifluoromethyl)phenyl]pyridine-3,5-dicarbonitrile], the melting point was 233 to 235 °C (dec.). Also, the “I% hA2A” value on hA2A AR is listed as 32%. At hA1 AR, this compound gave a Ki of 419 ± 32 nM. On hA2B AR, the Emax at 1 µM is 4% and the EC50 is > 1000 nM. This compound also showed an inhibition at 1 µM at hA3 AR of 21%.
In the case of `Cc1ccc(-c2c(C#N)c(N)nc(SCc3ncc[nH]3)c2C#N)cc1` [Compound 10, 2-[(1H-Imidazol-2-il)metiltio]-6-ammino-4(4-metilfenil)piridina-3,5-dicarbonitrile], the melting point is 259 to 261 °C (dec.). This compound gave a Ki at hA2A AR of 47 ± 4 nM. Besides, the affinity on hA1 AR corresponds to a Ki of 5.32 ± 0.42 nM. Further, at hA2B AR, the Emax at 1 µM was 78% and the EC50 is 78 ± 6 nM. This compound also returned a Ki on hA3 AR of 212 ± 19 nM.
For the compound `N#Cc1c(N)nc(SCc2ncc[nH]2)c(C#N)c1Cc1ccccc1` [Compound 12, 2-Amino-4-benzyl-6-[(1H-imidazol-2-ylmethyl)sulfanyl]pyridine-3,5-dicarbonitrile], the melting point is 246 to 248 °C (dec.). Moreover, the “I% hA2A” value at hA2A AR amounted to 8%. The “I% hA1” value on hA1 AR worked out at 31%. Besides, on hA2B AR, the Emax at 1 µM was 44% and it took 260 ± 24 nM to reach a half-maximal effect (EC50). Moreover, on hA3 AR, at 1 µM the inhibition was 1%.
Consider `Cc1c(C#N)c(N)nc(SCc2ncc[nH]2)c1C#N` [Compound 13, 2-Amino-6-[(1H-imidazol-2-ylmethyl)sulfanyl]-4-methylpyridine-3,5-dicarbonitrile], for which the melting point is 267 to 269 °C (dec.). The same compound registered a Ki at hA2A AR of 331 ± 32 nM. Moreover, the Ki on hA1 AR was 74 ± 8 nM. At hA2B AR, the Emax at 1 µM was 1% and the EC50 is > 1000 nM. On hA3 AR, the affinity corresponds to a Ki of 510 ± 53 nM.
In turn, `N#Cc1c(N)nc(NCc2ncc[nH]2)c(C#N)c1-c1ccccc1` [Compound 14, 2-Amino-6-[(1H-imidazol-2-ylmethyl)amino]-4-phenylpyridine-3,5-dicarbonitrile] had a melting point of 208 to 210 °C. Also, on hA2A AR, the inhibition constant Ki is 115 ± 10 nM. Affinity on hA1 AR was put at a Ki of 140 ± 12 nM. Besides, on hA2B AR, the Emax at 1 µM was 1% and the EC50 was > 1000 nM. This compound also showed an inhibition at 1 µM on hA3 AR of 19%.
On to `COc1ccc(CCNc2nc(N)c(C#N)c(-c3ccccc3)c2C#N)cc1` [Compound 16, 2-Amino-6-{[2-(4-methoxyphenyl)ethyl]amino}-4-phenylpyridine-3,5-dicarbonitrile], for which the “I% hA2A” value on hA2A AR is listed as 1%. The “I% hA1” value on hA1 AR amounted to 1%. In addition, at hA2B AR, the Emax at 1 µM is 1% and the EC50 is > 1000 nM. At hA3 AR, this compound had an inhibition at 1 µM of 1%.
